The source of these data is patent publication US4539331A, “Imidazole carboxamide derivatives and pharmaceutical compositions thereof” (priority 1981, dated 1985).

Read-outs that look alike come from different tables or passages of the source. A value given as a limit tells only on which side of the number the result lay.

Series [1] concerns carrageenin oedema. Kind of series: carrageenin oedema method (anti-inflammatory activity). In kind it is in vivo. The conditions noted are these: Rattus norvegicus; oral.
The subject of series [2] is writhing. As to the kind of experiment: writhing test (analgesic activity). In kind it is in vivo, mouse. The conditions noted are these: for ED50: Mus musculus, ip. (In general: An intraperitoneal irritant provokes the stretching counted in writhing tests.)
Series [3] has as its system beer yeast induced fever. As to the kind of experiment: beer yeast induced fever (antipyretic activity). In kind it is in vivo.
Series [4] has as its system gastric mucous. In kind it is in vivo, rat. The text has this: In the gastric tolerance test, the product was compared with aspirin and phenylbutazone on the rat, with oral administration.
Series [5] in a line: acute toxicity, rat. The conditions noted are these: in vivo. The text has this:
(§1) The acute toxicity in the rat and mouse is low

The nature of series [6]: acute toxicity, mouse. The conditions noted are these: in vivo.
Description: as §1

Series [7] in a line: solubility. In kind it is physicochemical.

The term ED50 denotes the dose that gives a 50% effect, or the effect in half of the subjects. On to `COc1ccc(Cl)cc1NC(=O)c1nc[nH]c1C` [Example 5a, N-(5-chloro-2-methoxyphenyl)-5-methyl-4-imidazolecarboxamide], for which it took a dose of 78 mg/kg to reach the 50% effect level in series [1] (ED50).
On to `Cc1cc(NC(=O)c2nc[nH]c2C)ccc1[N+](=O)[O-]` [Example 5b, N-(3-methyl-4-nitrophenyl)-5-methyl-4-imidazolecarboxamide], for which the 50% effective dose (ED50) in series [2] (read-out: ED50) stood at 35 mg/kg; in series [3] (oral, read-out: ED50) it was 58 mg/kg.
As for `Cc1ccc(F)cc1NC(=O)c1nc[nH]c1C` [Example 5c, N-(5-fluoro-2-methylphenyl)-5-methyl-4-imidazolecarboxamide], the ED50 in series [2] (read-out: ED50) was 50 mg/kg.
Regarding `Cc1c(N(C)C)c(=O)n(-c2ccccc2)n1C` [Pyramidon, reference compound], the ED50 in series [3] (oral, read-out: ED50) is 55 mg/kg.
With `CC(=O)Oc1ccccc1C(=O)O` [Aspirin, reference compound], the ED50 in series [2] turned out to be 45 mg/kg; in series [3] (po) it was 140 mg/kg. Also, the gastric alterations entry in series [4] (oral, 1000 mg/kg) was “haemorrhage spots, congestion and oedema”.
As usually defined, the LD50 is the dose expected to kill half of the subjects tested. Read a high LD50 as a less toxic substance. On to `Cc1ccc(NC(=O)c2nc[nH]c2C)cc1Cl` [Example 1, N-(3-chloro-4-methylphenyl)-5-methyl-4-imidazolecarboxamide], for which the LD50 in series [5] (ip) is 560 mg/kg; in series [5] (oral), more than 12000 mg/kg; in series [6] (ip), 700 mg/kg; in series [6] (oral), more than 8000 mg/kg. The ED50 was found to be 60 mg/kg in series [1]; 30 mg/kg in series [2] (read-out: ED50); 48 mg/kg in series [3] (oral, read-out: ED50). Besides, the “analgesic action relative to aspirin” value in series [2] (relative to aspirin) was 1.5 times. Moreover, the “antipyretic activity relative to aspirin” value in series [3] (relative to aspirin) is recorded as “three times that of aspirin”. Besides, the “antipyretic activity relative to pyramidon” value in series [3] (relative to pyramidon) is given as “slightly superior to that of pyramidon”. The solubility in acetone result in series [7] (acetone) is reported as “soluble”. Further, the “solubility in an acid aqueous medium” value in series [7] (acid aqueous medium) is on record as “sparingly soluble”. For the same compound, the solubility in chloroform entry in series [7] (chloroform) was “moderately soluble”. In addition, in series [7] (ethanol), the solubility in ethanol result is given as “soluble”. For the same compound, the solubility in isopropanol entry in series [7] (isopropanol) is reported as “soluble”. Also, in series [7] (methanol), the solubility in methanol entry was “soluble”. Also, the solubility in toluene entry in series [7] (toluene) is “insoluble”. Besides, the solubility in water result in series [7] (water) is given as “insoluble”.
In series [1], `CCCCC1C(=O)N(c2ccccc2)N(c2ccccc2)C1=O` [Phenylbutazone, reference compound] showed an ED50 of 45 mg/kg. Besides, in series [4] (rat, in vivo, po, 200 mg/kg), the gastric alterations result was “haemorrhage spots, congestion and oedema”.
On to `Cc1[nH]cnc1C(=O)Nc1ccc(Cl)c([N+](=O)[O-])c1` [Example 5h, N-(4-chloro-3-nitrophenyl)-5-methyl-4-imidazolecarboxamide], for which the ED50 in series [2] (read-out: ED50) came to 33 mg/kg.
